Ends that are not written are not given here.

For one data set, the system named is rabbits. Kind of data set: Biological assay for sleep-promoting activity in rabbits after intracerebroventricular infusion (EEG, body movement, temperature). The data set is classed as in vivo. The following applies: rabbit; for time spent in SWS / time spent in rapid-eye-movement sleep: after administration, vs control. Here is the method: Biological assays for sleep-promoting activity were performed on rabbits provided with chronically implanted ventricular guide tubes and four epidural screw electrodes for EEG. The animals were allowed at least one week to recover from surgery prior to their use for assays. Samples for testing were taken up in sterile artificial cerebrospinal fluid and a total of […] solution was infused intraventricularly (ICV) at the rate of 25 ul/min through a No. 26 hypodermic needle inserted through a guide tube. Following the infusion and removal of the infusion probe the animals were left undisturbed for 6-8 hours while EEG and bodily movements were recorded.
Slow wave sleep (SWS) was scored in two ways: (i) by conventional subjective scoring of the duration of SWS from polygraph records and (ii) by digital print-out of integrated mean rectified cortical slow waves (1/2-4 Hz). thus obtaining a measure of the amplitude was well as duration of delta wave EEG activity. Control animals were also assayed at the same time.
Operation and experimental procedure. Adult male New Zealand White Pasteurella-free rabbits, weighing 3-4 kg, were purchased from Myrtle's Rabbitry (Thompson Station, Tenn.). Under ketamine-xylazine (3.5-5.0 mg/kg iv) anesthesia, animals were provided with chronically implanted EEG electrodes, a glass-bead thermistor, and a cerebral ventricular guide tube (Krueger, J.M et al., Am. J. Physiol. 251 (Regulatory Integrative Comp. Physiol. 20): R591-R597, 1986; and Walter J.D. et al., Am. J. Physiol., 250 (Regulatory Integrative Comp. Physiol. 19): R96-R103, 1986). Briefly, stainless steal screws were implanted over the frontal parietal, and occipital cortex; and a small (1 mm diam) 50-k.OMEGA. thermistor (Fenwall Electronics) was placed 3 mm into the parietal cortex. Wires from Amphenol plugs (no. 223-1509) were soldered to the screws for EEG recordings and to the thermistors for brain temperature (Tbr) recordings. The ventricular guide tube was implanted 4 mm lateral to the bregma; during the implantation procedure, pressure at the tip of the infusion needle was monitored and used as an aid to locate the ventricle (See, e.g., Krueger, J.M et al., Am. J. Physiol., 246 (Regulatory Integrative Comp. Physiol. 15): R994-R999, 1984). Dental acrylic (DuzAll) was then used to insulate the leads and to secure the guide tube and EEG/thermistor plugs to the skull. A topical antibiotic (Bacitracin, Lilly) was applied to the incision, and 150,000 U of Duracillin (Lilly) were administered intramuscularly. At least 1 week was allowed for recovery.
Animals were housed in rooms on a 12:12-h light-dark cycle (0600-1800 h light) maintained at 21 ±2° C. The day before an experiment animals were brought to experimental chambers (Hotpack model 352600) for an overnight acclimation period. Each experimental chamber was also kept at 21 ±2° C. on a 12:12-h light-dark cycle. Food and water were available ad libitum at all times. At the top of the recording chamber, BRS/LVE electrical contact swivel was fixed; this allowed the rabbits free movement during recording periods. From the other end of the swivel a cable led to a Grass polygraph model 7D. Before each recording period the rabbits were connected to the recording cable for a 1-h habituation period, but data were not collected during this time.
Rabbits were then briefly taken out of the experimental cages and given the 3'-5' or 5'-3' CP (the "test substance"). [When animals received intracerebroventricular (ICV) injections, appropriate amounts of test substances (0.1-10.0 ul) were diluted to 50 ul with artificial CSF [3 mM KCL, 1.15 mM CaCl2 and 0.96 mM MgCl2 in pyrogen-free saline (PFS), […] NaCl (Abbott)]; these solutions were slowly infused over 2 min. […]

For data set [1] the following is noted: amino acids added to carboxyl terminal of N-acetyl muramyl-L-alanyl-D-isoglutamine; cited from earlier work.
A further data set deals with growth hormone release. The following applies: relative potency of C-terminal deleted hGHRH fragments; cited from earlier work.
The next data set has as its system lactating holstein cows. To be noted: cited from earlier work.
For another data set, the system named is rat pituitary gland. To be noted: cited from earlier work.

Regarding “H-DPVNIRAFDDVL-NH2 [3'-5' CP, H-Asp-Pro-Val-Asn-Ile-Arg-Ala-Phe-Asp-Asp-Val-Leu-NH2]”, in the data set with rabbits (ICV), the “behavior (arousable; eat, drink and groom)” value is “behavior was normal”; the “capacity to enhance sleep” value is recorded as “have the capacity to enhance sleep”; the “character of the excess sleep (cycling through states of vigilance)” value is “appeared normal”; the “temperatures of the animals” value is “remained normal”. Further, in the data set with rabbits (ICV), the “time spent in SWS” value is on record as “significantly more time” and the “time spent in rapid-eye-movement sleep” value is reported as “significantly more time”.
Take “H-VEPGSLFLVPLPLLPVHDFVQQFAGI-NH2 [5'-3' CP]”: in the data set on rabbits (ICV), the “capacity to enhance sleep” value is “have the capacity to enhance sleep”, the “time spent in SWS” value is listed as “significantly more time” and the “time spent in rapid-eye-movement sleep” value is recorded as “significantly more time”. Further, in the data set with rabbits (in vivo), the “behavior (arousable; eat, drink and groom)” value is listed as “behavior was normal”; the “character of the excess sleep (cycling through states of vigilance)” value is recorded as “appeared normal”; the “temperatures of the animals” value is recorded as “remained normal”.
Regarding “N-acetyl-muramyl-L-alanyl-D-isoglutamyl-L-diaminopimelyl alanine”, in data set [1], the somnogenic activity entry was “somnogenic activity is retained”.
For “hGHRH (1-19): C-terminal deleted GHRH fragment (YADAIFTNSYRKVLGQLSA; Somatoliberin; UniProt P01286 32-50, looked up, fragment)”, the “relative GH-releasing potency” value with growth hormone release was “No activity”.
For the substance “hGHRH (1-24): C-terminal deleted GHRH fragment (YADAIFTNSYRKVLGQLSARKLLQ; Somatoliberin; UniProt P01286 32-55, looked up, fragment)”, the “relative GH-releasing potency” value in the data set with growth hormone release is reported as 0.02%.
Turning to “hGHRH (1-27): C-terminal deleted GHRH fragment (YADAIFTNSYRKVLGQLSARKLLQDIM; Somatoliberin; UniProt P01286 32-58, looked up, fragment)”, in the data set with growth hormone release, the “relative GH-releasing potency” value is 12%.
In the case of “human GHRH: Growth Hormone Releasing Hormone, hypothalamic peptide which positively regulates the synthesis and secretion of growth hormone (YADAIFTNSYRKVLGQLSARKLLQDIMSRQQGESNQERGARARL; ends and bridges not checked; UniProt P01286 32-75, looked up)”, in the data set on lactating holstein cows, the “feed to milk conversion” value is “apparent increase” and the “secretion of growth hormone” value is listed as “increases the secretion of growth hormone consistently”. In the data set on rat pituitary gland, the GH-stimulating effect entry was “a GH-stimulating effect on the rat pituitary gland”.

The record behind these values is patent publication US5153175A, “Method of inducing sleep with GHRH complementary peptide compositions” (University of Tennesee Research Corporation, priority 1989, dated 1992).
